pEC50, pIC50: −log10 of the molar value. Like-named read-outs stand apart in the source and are kept apart here. A value given as a limit tells only on which side of the number the result lay.

One experiment concerns the target T1, HIV integrase WT (Human immunodeficiency virus type 1 group M subtype B, UniProt P12497).
T1 construct: The integrase coding region was then subject to PCR and cloned into a bacterial expression vector; made in house
The experiment in a line: Strand transfer assay (enzyme assay), wild type. The format is biochemical, HIV-1. An excerpt: (§1) HIV integrase was mutated within a shuttle vector (pGEMNLHE) containing the majority of the HIV-1 gag and pol sequence using site directed mutagenesis to generate integrase sequences that have been published as conferring resistance to published integrase inhibitors. These include, but are not limited to, mutations such as Q148K, Q148H/G140S and N155H/E92Q. The integrase coding region was then subject to PCR and cloned into a bacterial expression vector. The specific introduction of desired mutation(s) was confirmed by sequence analysis. Proteins were expressed, purified and used in strand transfer assays.
(§2) A strand transfer assay procedure similar to that published (Ovenden et al. Phytochemistry. 2004 December; 65(24):3255-9.) is used. Briefly, 400 ng of the enzyme, wild type or drug resistant mutant, is mixed with the compound to be tested and incubated with 30 nM substrate DNA. The substrate DNA is designed to mimic HIV DNA termini that has undergone 3′ end processing, and consists of the annealed U5 LTR sequence oligonucleotides tagged with Digoxigenin (DIG; 5′-[…]-DIG-3′) or biotin (5′-Bio-[…]-3′) so that each substrate has either a DIG or Bio tag on opposite strands. Reactions are carried out for 1 hr at 37° C. Products generated as a result of strand transfer activity are bound to streptavidin plates and detected using anti-DIG-alkaline phosphatase conjugate and p-nitro phenyl phosphate substrate.
(§3) Both the Phenosense assay and the Enzyme assay give substantially the same activity values for any particular compound and enzyme pair. The activity of one compound in one assay can therefore be directly compared to the activity of a second compound in the other assay.

Another experiment addresses T2, HIV integrase E92Q/N155H (Human immunodeficiency virus type 1 group M subtype B, UniProt P12497, E1239Q/N1302H).
T2 construct: The integrase coding region was then subject to PCR and cloned into a bacterial expression vector; made in house
As to the kind of experiment: Strand transfer assay (enzyme assay), E92Q/N155H mutant. The format is biochemical, HIV-1.
Source text: as §1, §2, §3

Experiment [1] has as its target T3, HIV integrase G140S/Q148H (Human immunodeficiency virus type 1 group M subtype B, UniProt P12497, G1287S/Q1295H).
T3 construct: The integrase coding region was then subject to PCR and cloned into a bacterial expression vector; made in house
The experiment in a line: Strand transfer assay (enzyme assay), G140S/Q148H mutant. It is filed as biochemical, HIV-1.
Source text: as §1, §2, §3

In experiment [2] the test system is HIV-1 reporter virus, integrase Q148H/G140S (QHGS). As to the kind of experiment: Luciferase reporter virus infectivity assay, QHGS mutant. The format is cell-based. The text has this:
(§4) Infectivity assays using reporter viruses derived from lentiviral vectors capable of a single round of infection were used to determine the activity (EC50) of compounds. The DNA used to generate viruses for infection was the full-length HIV-1 genome which had been envelope-deleted. In addition, a reporter gene (the firefly luciferase gene from Photinus pyralis) was cloned into the nef region of the HIV backbone for ease of assay readout. […]. Culture supernatants containing VSV-G pseudotyped virions were harvested 64 h post transfection, clarified by centrifugation to remove cell debris, and frozen at −70° C. until use.
(§5) HIV integrase was mutated within a shuttle vector (pGEM) containing the majority of the HIV-1 gag and pol sequence using site-directed mutagenesis to generate sequences that are known to confer resistance to published integrase inhibitors. These include but are not limited to mutations such as Q148H/G140S (in tables 2 and 3 # QHGS), N155H/E92Q (in table 2 # NHEQ), F121Y/T124K (in table 2 FYTK), Y143R (in table 2 # Y143R) and the triple mutant Q148K/G140A/E138A. (in table 2 # QKGAEA). The mutated integrase coding region within the shuttle vector was sequence verified, and then exchanged for the wild-type (WT) coding sequence in the reporter virus DNA backbone.
(§6) 293T cells were plated out at 12000 cells per well in CellView 96-well cell culture plates (Invitrogen) 16 h prior to compound addition. Compounds were preincubated with cells for 4 h at 37° C. prior to the addition of virus sufficient to generate approximately 10000 Luciferase light units (as measured by the Victor Wallace luminometer) upon assaying using the Bright-Glo™ reagent (Promega) according to the manufacturer's instructions at 48 h post infection.
In general terms: In a reporter assay the amount or activity of a reporter protein is the signal.

The subject of experiment [3] is HIV-1 reporter virus, wild-type (WT) integrase. The experiment in a line: Luciferase reporter virus infectivity assay, WT. The format is cell-based. The note with it: Human immunodeficiency virus 1, HEK-293T, 48 h, read-out: Luciferase assay results WT (EC50).
Source text: as §4, §5, §6

The mark [4] stands for this setting: Human immunodeficiency virus 1, HEK-293T, read-out: Luciferase assay results QHGS (EC50).
The mark [5] stands for this setting: Human immunodeficiency virus 1, HEK-293T, read-out: EC50 against the QHGS mutant.

`Cn1ccn2c(=O)c(O)c(-c3ncc(Cc4ccc(F)c(Cl)c4)s3)nc12`: the values for the pIC50 (on HIV integrase WT; at HIV integrase E92Q/N155H; in experiment [1]) were 7.00 to 9.00, 6.00 to 7.00 and 6.00 to 7.00, respectively.

For `O=C(Cn1ccn2c(=O)c(O)c(-c3ncc(Cc4ccc(F)cc4)s3)nc12)N1CCCCC1`, the pEC50 (in general, −log10 of the EC50, conventionally taken in molar units) in experiment [2] (setting [4]) was < 6.00; in experiment [3], 7.00 to 9.00.

As for `Cn1ccn2c(=O)c(O)c(-c3ncc(Cc4ccc(F)cc4)s3)nc12`, the pIC50 (commonly the negative decadic logarithm of the IC50, by convention in mol/L) on HIV integrase WT was 7.00 to 9.00; at HIV integrase E92Q/N155H, 6.00 to 7.00; in experiment [1], 7.00 to 9.00.

Regarding `Cn1ccn2c(=O)c(O)c(-c3ncc(Cc4ccc(Cl)c(Cl)c4)s3)nc12`, the pIC50 against HIV integrase WT was 7.00 to 9.00; against HIV integrase E92Q/N155H, 6.00 to 7.00; in experiment [1], 6.00 to 7.00.

`Cn1ccn2c(=O)c(O)c(-c3ncc(Cc4ccc(Cl)cc4)s3)nc12`: the pIC50 at HIV integrase WT is 7.00 to 9.00; against HIV integrase E92Q/N155H, 6.00 to 7.00; in experiment [1], 6.00 to 7.00.

`CSCc1cn(CC(=O)N2CC(C)CC(C)C2)c2nc(C(=O)NCc3ccc(F)cc3S(=O)(=O)N(C)C)c(O)c(=O)n12` (centres unmarked) [Example 192, 1-[2-(3,5-Dimethyl-piperidin-1-yl)-2-oxo-ethyl]-6-hydroxy-3-methylsulfanylmethyl-5-oxo-1,5-dihydro-imidazo[1,2-a]pyrimidine-7-carboxylic acid 2-dimethylsulfamoyl-4-fluoro-benzylamide]: the pEC50 in experiment [2] (setting [5]) was > 6.30.

For the compound `C[C@H]1CN(C(=O)Cn2ccn3c(=O)c(O)c(-c4ncc(Cc5ccc(F)cc5S(=O)(=O)N(C)C)s4)nc23)C[C@H](C)O1` (stereo in doubt) [Example 104, 2-(2-{1-[2-(2,6-Dimethyl-morpholin-4-yl)-2-oxo-ethyl]-6-hydroxy-5-oxo-1,5-dihydro-imidazo[1,2-a]pyrimidin-7-yl}-thiazol-5-ylmethyl)-5-fluoro-N,N-dimethyl-benzenesulfonamide], the pEC50 in experiment [2] (setting [5]) was > 6.30.

Take `CC1CC(C)CN(C(=O)Cn2cc(N3CCCS3(=O)=O)n3c(=O)c(O)c(C(=O)NCc4ccc(F)cc4S(=O)(=O)N(C)C)nc23)C1` (centres unmarked) [Example 187, 1-[2-(3,5-Dimethyl-piperidin-1-yl)-2-oxo-ethyl]-3-(1,1-dioxo-1lambda*6*-isothiazolidin-2-yl)-6-hydroxy-5-oxo-1,5-dihydro-imidazo[1,2-a]pyrimidine-7-carboxylic acid 2-dimethylsulfamoyl-4-fluoro-benzylamide]: in experiment [2] (setting [5]), the pEC50 was > 6.30.

As to `C[C@@H]1CN(C(=O)Cn2cc(N3CCCS3(=O)=O)n3c(=O)c(O)c(C(=O)NCc4ccc(F)cc4S(=O)(=O)N(C)C)nc23)C[C@@H](C)O1` [Example 186, 1-[2-((2R,6R)-2,6-Dimethyl-morpholin-4-yl)-2-oxo-ethyl]-3-(1,1-dioxo-1lambda*6*-isothiazolidin-2-yl)-6-hydroxy-5-oxo-1,5-dihydro-imidazo[1,2-a]pyrimidine-7-carboxylic acid 2-dimethylsulfamoyl-4-fluoro-benzylamide], the pEC50 in experiment [2] (setting [5]) is > 6.30.

On to `CC1CCCCN1C(=O)Cn1cc(N2CCCS2(=O)=O)n2c(=O)c(O)c(C(=O)NCc3ccc(F)cc3S(=O)(=O)N(C)C)nc12` (centres unmarked) [Example 189, 3-(1,1-Dioxo-1lambda*6*-isothiazolidin-2-yl)-6-hydroxy-1-[2-(2-methyl-piperidin-1-yl)-2-oxo-ethyl]-5-oxo-1,5-dihydro-imidazo[1,2-a]pyrimidine-7-carboxylic acid 2-dimethylsulfamoyl-4-fluoro-benzylamide], for which the pEC50 in experiment [2] (setting [5]) was 6.00 to 6.30.

Regarding `O=C(Cn1ccn2c(=O)c(O)c(-c3ncc(Cc4ccc(F)cc4)s3)nc12)N1CC2CCC1C2` (centres unmarked) [Example 185, 1-[2-(2-Aza-bicyclo[2.2.1]hept-2-yl)-2-oxo-ethyl]-7-[5-(4-fluoro-benzyl)-thiazol-2-yl]-6-hydroxy-1H-imidazo[1,2-a]pyrimidin-5-one], the negative logarithm of the EC50 (pEC50) in experiment [2] (setting [5]) was 5.00 to 6.00.

As to “6-Benzyloxy-1-[2-(2,6-dimethyl-morpholin-4-yl)-2-oxo-ethyl]-7-[5-(4-fluoro-2-methylsulfanyl-benzyl)-thiazol-2-yl]-1H-imidazo[1,2-a]pyrimidin-5-one [Example 168]”, the pEC50 in experiment [2] (293T cells, Q148H/G140S reporter virus, Table 3, read-out: EC50 against the QHGS mutant) is 6.00 to 6.30.

Turning to `CSCc1cn(CC(=O)N2CC(C)CC(C)C2)c2nc(C(=O)NCc3ccc(Cl)c(Cl)c3)c(O)c(=O)n12` (centres unmarked) [Example 191, 1-[2-(3,5-Dimethyl-piperidin-1-yl)-2-oxo-ethyl]-6-hydroxy-3-methylsulfanylmethyl-5-oxo-1,5-dihydro-imidazo[1,2-a]pyrimidine-7-carboxylic acid 3,4-dichloro-benzylamide], the pEC50 in experiment [2] (setting [5]) was 5.00 to 6.00.

Take `C[C@H]1CN(C(=O)Cn2cc(N3CCCS3(=O)=O)n3c(=O)c(O)c(-c4ncc(Cc5ccc(F)cc5)s4)nc23)C[C@H](C)O1` [Example 75, 1-[2-(2,6-Dimethyl-morpholin-4-yl)-2-oxo-ethyl]-3-(1,1-dioxo-1l6-isothiazolidin-2-yl)-7-[5-(4-fluoro-benzyl)-thiazol-2-yl]-6-hydroxy-1H-imidazo[1,2-a]pyrimidin-5-one]: the pEC50 in experiment [2] (setting [5]) was 6.00 to 6.30.

For the compound `CC1CC(C)CN(C(=O)Cn2cc(CS(C)(=O)=O)n3c(=O)c(O)c(C(=O)NCc4ccc(Cl)c(Cl)c4)nc23)C1` (centres unmarked) [Example 193, 1-[2-(3,5-Dimethyl-piperidin-1-yl)-2-oxo-ethyl]-6-hydroxy-3-methanesulfonylmethyl-5-oxo-1,5-dihydro-imidazo[1,2-a]pyrimidine-7-carboxylic acid 3,4-dichloro-benzylamide], in experiment [2] (setting [5]), the pEC50 was > 6.30.

Turning to `C[C@@H]1C[C@@H](C)CN(C(=O)Cn2ccn3c(=O)c(O)c(-c4ncc(Cc5ccc(F)cc5)s4)nc23)C1` (stereo in doubt) [Example 180, 1-[2-(3,5-Dimethyl-piperidin-1-yl)-2-oxo-ethyl]-7-[5-(4-fluoro-benzyl)-thiazol-2-yl]-6-hydroxy-1H-imidazo[1,2-a]pyrimidin-5-one], in experiment [2] (setting [5]), the pEC50 is 6.00 to 6.30.

For `CC1CCCCN1C(=O)Cn1ccn2c(=O)c(O)c(-c3ncc(Cc4ccc(F)cc4)s3)nc12` (centres unmarked) [Example 126, 7-(5-(4-fluorobenzyl)thiazol-2-yl)-6-hydroxy-1-(2-(2-methylpiperidin-1-yl)-2-oxoethyl)imidazo[1,2-a]pyrimidin-5(1H)-one], the pEC50 in experiment [2] (setting [5]) is 6.00 to 6.30.

Take `C[C@H]1CN(C(=O)Cn2ccn3c(=O)c(O)c(-c4ncc(Cc5ccc(Cl)c(Cl)c5)s4)nc23)C[C@H](C)O1`: the pEC50 in experiment [2] (setting [4]) is 6.00 to 7.00; in experiment [3] it was 7.00 to 9.00.

With `CN1CCC(n2ccn3c(=O)c(O)c(-c4ncc(Cc5ccc(F)cc5)s4)nc23)C1=O` (centres unmarked) [Example 183, 7-[5-(4-Fluoro-benzyl)-thiazol-2-yl]-6-hydroxy-1-(1-methyl-2-oxo-pyrrolidin-3-yl)-1H-imidazo[1,2-a]pyrimidin-5-one], the pEC50 in experiment [2] (setting [5]) is 6.00 to 6.30.

Source of the values: patent US8431581B2, “Imidazopyrimidines and uses thereof” (priority 2008, dated 2013).
